Test results taken from patent EP4778929A1, “NOVEL TYPE I TOPOISOMERASE INHIBITOR, AND PREPARATION METHOD THEREFOR AND USE THEREOF” (priority 2023, dated 2025).
Where two headings read alike, the source gives them in different places.

Key:
topoisomerase I (Topo I) = target: T1, topoisomerase I (Topo I) (Homo sapiens, UniProt P11387); test: Topo I enzyme-inhibitory activity by agarose-gel electrophoresis (plasmid relaxation); format: biochemical
T1 sequence (P11387 1-765): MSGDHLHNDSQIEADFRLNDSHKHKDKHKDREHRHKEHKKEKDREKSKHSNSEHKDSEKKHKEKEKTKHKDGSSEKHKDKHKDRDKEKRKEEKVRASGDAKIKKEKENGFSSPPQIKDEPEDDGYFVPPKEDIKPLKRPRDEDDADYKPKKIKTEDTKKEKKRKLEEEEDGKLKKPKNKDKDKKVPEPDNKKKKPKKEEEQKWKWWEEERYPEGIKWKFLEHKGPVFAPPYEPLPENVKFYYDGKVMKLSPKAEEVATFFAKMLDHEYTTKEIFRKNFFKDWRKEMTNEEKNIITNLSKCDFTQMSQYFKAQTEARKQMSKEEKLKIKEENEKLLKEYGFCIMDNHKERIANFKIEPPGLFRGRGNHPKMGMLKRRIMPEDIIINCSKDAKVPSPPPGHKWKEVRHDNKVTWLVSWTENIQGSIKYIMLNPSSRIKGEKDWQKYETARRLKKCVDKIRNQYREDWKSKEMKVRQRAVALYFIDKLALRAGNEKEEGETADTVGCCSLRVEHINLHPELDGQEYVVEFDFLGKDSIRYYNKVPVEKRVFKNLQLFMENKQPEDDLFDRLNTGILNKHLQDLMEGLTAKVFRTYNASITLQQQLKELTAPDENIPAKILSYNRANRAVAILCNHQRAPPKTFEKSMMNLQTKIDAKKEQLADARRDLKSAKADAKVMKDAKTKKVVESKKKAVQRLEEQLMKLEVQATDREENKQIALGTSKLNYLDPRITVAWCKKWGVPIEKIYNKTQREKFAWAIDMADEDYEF
Description: Test Example 1. Determination of Topo I Enzyme-Inhibitory Activity by Agarose-Gel Electrophoresis
Principle: Type-I topoisomerase (Topo I) relaxes positive and negative supercoils by introducing transient single-strand breaks and forming reversible cleavage complexes (Topo I-DNA covalent complexes). Gel electrophoresis can resolve DNA species of identical molecular weight but different topology: supercoiled plasmid migrates fastest, whereas the nicked, relaxed form moves more slowly. Quantifying the decrease in supercoiled DNA therefore provides a direct measure of Topo I activity.
Experimental Procedure: A 1× reaction buffer was prepared (20 mM Tris-HCl pH 7.5, 200 mM NaCl, 0.25 mM EDTA, 5 % (v/v) glycerol, 0.5 µg pNO1 plasmid substrate). Test compounds (5 % DMSO final) were added to the buffer, followed by Topo I enzyme (0.75 U per reaction). After gentle mixing, reactions were incubated at 37 °C for 30 min. Positive (enzyme + vehicle) and negative (no enzyme) controls were included in parallel. Reactions were terminated by adding STEB buffer and chloroform/iso-amyl alcohol (24:1, v/v), vortexed and centrifuged for 2 min. The aqueous (upper) phase was loaded onto a 1 % (w/v) agarose gel, electrophoresed for 1-2 h, stained with GelRed, and imaged under UV trans-illumination.
Data Analysis: Band intensities of supercoiled DNA were quantified with image-analysis software. Relaxation activity (%) was calculated as (Max-Sample)/ (Max-Min)*100%, where Max = intensity of the no-enzyme negative control, Min = intensity of the vehicle-only positive control, and Sample = intensity of the compound-treated lane. Dose-response data (compound concentration, X; relaxation activity %, Y) were fitted in Excel or GraphPad Prism 5.0 using the four-parameter logistic equation: Y=Bottom + (Top-Bottom)/(1+(IC50/X)[…]) to derive the IC50 value for each compound.
Table 1. Compound-mediated inhibition of topoisomerase I (Topo I) enzymatic activity

[1] = Pharmacokinetic study in mice, plasma concentrations by LC-MS/MS; conditions: mouse, in vivo
Protocol: Test Example 3. Pharmacokinetic Study for Determining Compound Concentrations in Mice by LC-MS/MS
Principle: LC-MS/MS is used to quantify the plasma concentrations of the test article at successive time points, generating an in-vivo pharmacokinetic profile.
Procedure: The test compound was dissolved in DMSO to prepare a 10 mg/mL stock solution. This stock was further diluted to 1 mg/mL with a vehicle consisting of 10 % DMSO + 10 % Solutol HS-15 + 80 % saline. Male CD-1 mice (JH Laboratory Animal Co., LTD) were employed; six animals were assigned per compound group. […] Serial blood samples (~50 µL whole blood, K2EDTA anticoagulant) were collected at 0.083, 0.25, 0.5, 1, 2, 4, 8 and 24 h (three mice per time point in a crossover design). Blood was centrifuged at 6 000 g for 5 min at 4 °C; plasma was harvested and stored at -70 °C until analysis. Plasma drug concentrations were determined by LC-MS/MS.
Calibration Curve and QC Preparation: Working solutions were prepared by dilution with MeOH:H2O (1:1). For each calibration or QC level, 3 µL of working solution was spiked into 57 µL of blank mouse plasma.
Sample Processing: To 30 µL of plasma was added 200 µL of methanol containing the internal standard (propranolol, 40 ng mL^-1). After vortex-mixing for 1 min, the mixture was centrifuged at 12 000 rpm for 10 min. A 100 µL aliquot of the supernatant was transferred to a clean plate for injection.
Pharmacokinetic Analysis: Concentration-time data were analyzed with WinNonlin 8.2 using a non-compartmental approach to derive PK parameters including Cmax, Tmax, AUC and terminal elimination half-life (t1/2). AUC was calculated by the linear-up/log-down trapezoidal method. Table 3. Pk parameters of compounds

[2] = 0.75 U Topo I, pNO1 plasmid, 37 °C, 30 min; compounds listed by group (Group A / Group B); read-out: inhibition of topoisomerase I (Topo I) enzymatic activity, IC50
[3] = read-out: inhibition of topoisomerase I (Topo I) enzymatic activity, IC50; 0.75 U Topo I, pNO1 plasmid, 37 °C, 30 min; compounds listed by group (Group A / Group B)

Row | SMILES | IC50 (topoisomerase I (Topo I); [2]) [nM] | AUC(0-t) at 24 h ([1]; iv, 1 mg/kg) [ng·h/mL] | Cmax ([1]; iv, 1 mg/kg) [ng/mL] | clearance ([1]; iv, 1 mg/kg) [mL/min/kg] | half-life ([1]; iv, 1 mg/kg) [min] | AUC(0-t) at 24 h ([1]; po, 10 mg/kg) [ng·h/mL] | Cmax ([1]; po, 10 mg/kg) [ng/mL] | Tmax ([1]; po, 10 mg/kg) [min] | half-life ([1]; po, 10 mg/kg) [min] | IC50 (topoisomerase I (Topo I); [3]) [nM] | also measured
1 | CC[C@@]1(O)C(=O)OCc2c1cc1n(c2=O)Cc2c-1c(=O)c1cc(F)c([C@H](C)O)cc1n2C1CCCC1 (single isomer, unassigned) [Example 293] | 200 to 500 |  |  |  |  |  |  |  |  |  | 
2 | CC[C@@]1(O)C(=O)OCc2c1cc1n(c2=O)Cc2c-1c(=O)c1cc(F)c([C@@H](C)O)cc1n2C1CCCC1 (single isomer, unassigned) [Example 294] | 200 to 500 |  |  |  |  |  |  |  |  |  | 
3 | CC[C@@]1(O)C(=O)OCc2c1cc1n(c2=O)Cc2c-1nc1cc(F)c(C)c3c1c2[C@@H](NC(=O)CO)CC3 [DXd] |  | 154 | 455 | 108 | 9.3 | 4.32 | 6.99 | 19.8 | 23.4 |  | 
4 | CC[C@@]1(O)C(=O)OCc2c1cc1n(c2=O)Cc2c-1c(=O)c1cc(F)ccc1n2CCNC1CC1 [Example 96, (S)-11-(2-(cyclopropylamino)ethyl)-4-ethyl-8-fluoro-4-hydroxy-1,12-dihydro-14H-pyrano[3,4:6,7]indolizino[2,1-b]quinoline-3,6,14 (4H,11H)-trione] |  |  |  |  |  |  |  |  |  | < 200 | 
5 | CC[C@@]1(O)C(=O)OCc2c1cc1n(c2=O)Cc2c-1c(=O)c1cc(F)ccc1n2CCN(C)C1CC1 [Example 97, (S)-11-(2-(cyclopropyl(methyl)amino)ethyl)-4-ethyl-8-fluoro-4-hydroxy-1,12-dihydro-14H-pyrano[3,4:6,7]indolizino[2,1-b]quinoline-3,6,14(4H,11H)-trione] |  | 114 | 256 | 146 | 28.9 | 395 | 131 | 55.2 | 75.6 |  | bioavailability [1]: 34.5%
6 | CC[C@@]1(O)C(=O)OCc2c1cc1n(c2=O)Cc2c-1c(=O)c1cc3c(cc1n2CCN(C)C1CCCC1)OCO3 [Example 179] |  |  |  |  |  |  |  |  |  | 200 to 500 | 
